Laboratory results taken from DBAASP.
≈ marks a conversion by molar mass, not a printed value.

Legend:
Assay in all cases: ≥ marks a high value that may be exact or a test limit, other limits are often not marked, values filed in µg/mL are converted to µM
[1] = system: Escherichia coli ATCC 8739
[2] = system: Staphylococcus aureus ATCC 6538
Escherichia coli JW0013 = system: Escherichia coli JW0013
[3] = system: Staphylococcus aureus ATCC 25923

| SMILES | MIC (Escherichia coli JW0013) [µM] | also measured |
| --- | --- | --- |
| CC[C@H](C)[C@H](NC(=O)[C@H](CC(C)C)NC(=O)[C@H](CC(C)C)NC(=O)[C@H](CC(=O)O)NC(=O)[C@H](CCCCN)NC(=O)[C@@H](NC(=O)[C@@H](NC(=O)CNC(=O)[C@H](CC(C)C)NC(=O)[C@@H](NC(=O)[C@@H](N)CO)C(C)C)[C@@H](C)O)C(C)C)C(=O)NCC(=O)N[C@@H](C)C(=O)NCC(=O)N[C@@H](CCCCN)C(=O)N[C@@H](CO)C(=O)N[C@@H](C)C(=O)N[C@@H](C)C(=O)N[C@@H](CCC(N)=O)C(=O)N[C@@H](CO)C(=O)N[C@H](C(=O)N[C@@H](CC(C)C)C(=O)N[C@H](C(=O)N[C@H](C(=O)N[C@@H](CC(C)C)C(=O)N[C@@H](CO)C(=O)N[C@H]1CSSC[C@@H](C(=O)O)NC(=O)[C@H](CO)NC(=O)[C@H](CC(N)=O)NC(=O)[C@H](CO)NC(=O)[C@H](CC(C)C)NC(=O)[C@H](CCCCN)NC1=O)[C@@H](C)O)[C@@H](C)O)C(C)C [SVLGTVKDLLIGAGKSAAQSVLTTLSCKLSNSC] |  | MIC [1]: ≥ 50 µM; MIC [2]: 25 µM (≈ 81.6 µg/mL) |
| CC[C@H](C)[C@H](NC(=O)[C@H](CCCN=C(N)N)NC(=O)[C@H](CCCN=C(N)N)NC(=O)[C@@H]1CCCN1C(=O)[C@@H]1CCCN1C(=O)[C@H](CCCN=C(N)N)NC(=O)[C@@H]1CCCN1C(=O)[C@H](CCCN=C(N)N)NC(=O)[C@@H]1CCCN1C(=O)[C@H](CC(C)C)NC(=O)[C@H](Cc1ccc(O)cc1)NC(=O)[C@@H]1CCCN1C(=O)[C@@H]1CCCN1C(=O)[C@H](CCCCN)NC(=O)[C@H](CCCCN)NC(=O)[C@@H](N)C(C)C)C(=O)N[C@@H](Cc1ccc(O)cc1)C(=O)N[C@@H](CC(N)=O)C(=O)N[C@@H](CCCN=C(N)N)C(N)=O [VKKPPYLPRPRPPRRIYNR] | 1.37 (≈ 3.3 µg/mL) |  |
| CC[C@H](C)[C@H](NC(=O)[C@H](CCCN=C(N)N)NC(=O)[C@H](CCCN=C(N)N)NC(=O)[C@@H]1CCCN1C(=O)[C@@H]1CCCN1C(=O)[C@H](CCCN=C(N)N)NC(=O)[C@@H]1CCCN1C(=O)[C@H](CCCN=C(N)N)NC(=O)[C@@H]1CCCN1C(=O)[C@H](CC(C)C)NC(=O)[C@H](Cc1ccc(O)cc1)NC(=O)[C@H](CCCN=C(N)N)NC(=O)[C@@H]1CCCN1C(=O)[C@H](CCCCN)NC(=O)[C@H](CC(=O)O)NC(=O)[C@@H](N)C(C)C)C(=O)N[C@@H](Cc1ccc(O)cc1)C(=O)N[C@@H](CC(N)=O)C(=O)N[C@@H](CCCN=C(N)N)C(N)=O [VDKPRYLPRPRPPRRIYNR] | 1.35 (≈ 3.3 µg/mL) |  |
| CC[C@H](C)[C@H](NC(=O)[C@H](C)NC(=O)[C@H](CC(N)=O)NC(=O)[C@@H](N)CCSC)C(=O)N[C@@H](CC(N)=O)C(=O)N[C@@H](Cc1ccccc1)C(=O)N[C@H](C(=O)N[C@@H](CS)C(=O)N[C@H](C(=O)N[C@H](C(=O)N[C@@H](Cc1cnc[nH]1)C(=O)N[C@@H](CCCCN)C(=O)N[C@@H](CCCCN)C(=O)N[C@H](C(=O)N[C@@H](C)C(=O)N[C@H](C(=O)N[C@@H](CO)C(=O)N[C@H](C(=O)O)C(C)C)[C@@H](C)CC)C(C)C)C(C)C)[C@@H](C)O)[C@@H](C)O [MNAINFTCTVHKKVAISV] |  | MIC [3]: > 130 µM; MIC [1]: ≥ 130 µM |

Second part, led by results:

| MIC (Escherichia coli JW0013) [µM] | SMILES | also measured |
| --- | --- | --- |
| 0.639 (≈ 1.6 µg/mL) | CC[C@H](C)[C@H](NC(=O)[C@H](CCCN=C(N)N)NC(=O)[C@H](CCCN=C(N)N)NC(=O)[C@@H]1CCCN1C(=O)[C@@H]1CCCN1C(=O)[C@H](CCCN=C(N)N)NC(=O)[C@@H]1CCCN1C(=O)[C@H](CCCN=C(N)N)NC(=O)[C@@H]1CCCN1C(=O)[C@H](CCCN=C(N)N)NC(=O)[C@H](Cc1ccc(O)cc1)NC(=O)[C@H](Cc1cnc[nH]1)NC(=O)[C@H](CCCCN)NC(=O)[C@H](CCCCN)NC(=O)[C@H](CC(=O)O)NC(=O)[C@@H](N)C(C)C)C(=O)N[C@@H](Cc1ccc(O)cc1)C(=O)N[C@@H](CC(N)=O)C(=O)N[C@@H](CCCN=C(N)N)C(N)=O [VDKKHYRPRPRPPRRIYNR] |  |
| 0.635 (≈ 1.6 µg/mL) | CC[C@H](C)[C@H](NC(=O)[C@H](CCCN=C(N)N)NC(=O)[C@H](CCCN=C(N)N)NC(=O)[C@@H]1CCCN1C(=O)[C@@H]1CCCN1C(=O)[C@H](CCCN=C(N)N)NC(=O)[C@H](CCCCN)NC(=O)[C@H](CCCN=C(N)N)NC(=O)[C@@H]1CCCN1C(=O)[C@H](CC(C)C)NC(=O)[C@H](Cc1ccc(O)cc1)NC(=O)[C@H](Cc1cnc[nH]1)NC(=O)[C@H](CCCN=C(N)N)NC(=O)[C@H](CCCCN)NC(=O)[C@H](CC(=O)O)NC(=O)[C@@H](N)C(C)C)C(=O)N[C@@H](Cc1ccc(O)cc1)C(=O)N[C@@H](CC(N)=O)C(=O)N[C@@H](CCCN=C(N)N)C(N)=O [VDKRHYLPRKRPPRRIYNR] |  |
| 0.685 (≈ 1.7 µg/mL) | CC[C@H](C)[C@H](NC(=O)[C@H](CCCN=C(N)N)NC(=O)[C@H](CCCN=C(N)N)NC(=O)[C@@H]1CCCN1C(=O)[C@@H]1CCCN1C(=O)[C@H](CCCN=C(N)N)NC(=O)[C@H](CCCCN)NC(=O)[C@H](CCCN=C(N)N)NC(=O)[C@@H]1CCCN1C(=O)[C@H](CC(C)C)NC(=O)[C@H](Cc1ccc(O)cc1)NC(=O)[C@@H]1CCCN1C(=O)[C@H](CCCN=C(N)N)NC(=O)[C@H](CCCCN)NC(=O)[C@H](CC(=O)O)NC(=O)[C@@H](N)C(C)C)C(=O)N[C@@H](Cc1ccc(O)cc1)C(=O)N[C@@H](CC(N)=O)C(=O)N[C@@H](CCCN=C(N)N)C(N)=O [VDKRPYLPRKRPPRRIYNR] |  |
| 0.489 (≈ 1.2 µg/mL) | CC[C@H](C)[C@H](NC(=O)[C@H](CCCN=C(N)N)NC(=O)[C@H](CCCN=C(N)N)NC(=O)[C@@H]1CCCN1C(=O)[C@@H]1CCCN1C(=O)[C@H](CCCN=C(N)N)NC(=O)[C@H](CCCCN)NC(=O)[C@H](CCCN=C(N)N)NC(=O)[C@@H]1CCCN1C(=O)[C@H](CC(C)C)NC(=O)[C@H](Cc1ccc(O)cc1)NC(=O)[C@@H]1CCCN1C(=O)[C@H](CCCCN)NC(=O)[C@H](CCCCN)NC(=O)[C@H](CC(=O)O)NC(=O)[C@@H](N)C(C)C)C(=O)N[C@@H](Cc1ccc(O)cc1)C(=O)N[C@@H](CC(N)=O)C(=O)N[C@@H](CCCN=C(N)N)C(N)=O [VDKKPYLPRKRPPRRIYNR] |  |
| 0.3 (≈ 0.615 µg/mL) | CC[C@H](C)[C@H](NC(=O)[C@H](CCCCN)NC(=O)[C@@H](N)CCCN=C(N)N)C(=O)N[C@@H](CCCN=C(N)N)C(=O)N1CCC[C@H]1C(=O)N[C@@H](CCCN=C(N)N)C(=O)N1CCC[C@H]1C(=O)N1CCC[C@H]1C(=O)N[C@@H](CCCN=C(N)N)C(=O)N[C@@H](CC(C)C)C(=O)N1CCC[C@H]1C(=O)N[C@@H](CCCN=C(N)N)C(=O)N1CCC[C@H]1C(=O)N[C@@H](CCCN=C(N)N)C(=O)N1CCC[C@H]1C(=O)N[C@@H](CCCN=C(N)N)C(=O)O [RKIRPRPPRLPRPRPR] |  |
| 0.682 (≈ 1.7 µg/mL) | CC[C@H](C)[C@H](NC(=O)[C@H](CCCN=C(N)N)NC(=O)[C@H](CCCN=C(N)N)NC(=O)[C@@H]1CCCN1C(=O)[C@@H]1CCCN1C(=O)[C@H](CCCN=C(N)N)NC(=O)[C@H](CCCCN)NC(=O)[C@H](CCCN=C(N)N)NC(=O)[C@@H]1CCCN1C(=O)[C@H](CC(C)C)NC(=O)[C@H](Cc1ccc(O)cc1)NC(=O)[C@H](Cc1cnc[nH]1)NC(=O)[C@H](CCCCN)NC(=O)[C@H](CCCCN)NC(=O)[C@H](CC(=O)O)NC(=O)[C@@H](N)C(C)C)C(=O)N[C@@H](Cc1ccc(O)cc1)C(=O)N[C@@H](CC(N)=O)C(=O)N[C@@H](CCCN=C(N)N)C(N)=O [VDKKHYLPRKRPPRRIYNR] |  |
